What was measured:
[1] = system: SPX1 phosphate starvation biomarker; experiment: Chemical activity assessment with Arabidopsis pSPX1::GUS reporter line (GUS stained area); format: in vivo, Arabidopsis thaliana; settings: low phosphate, 50 μM, 7 days after germination; compare with low phosphate controls of same plate (Table 5 c3)
Description: (§1) All Arabidopsis plant experiments were performed using the Arabidopsis thaliana Columbia-0 background. The Arabidopsis pSPX1::GUS line is described in the Plant Journal 2008, 54: 965-975. For rice, the cultivar Nipponbare was used. For maize, the cultivars DKC 2931 and B104 were used for regular pot experiments and sand-based pot experiments, respectively. For soybean, the cultivar Primus was used. […] The medium was solidified due to the addition of 0.6% Gelrite, unless stated otherwise. In case of vertical plates (root length and root hair measurements), the medium was supplied with 0.5% of sucrose and 1 μM (low phosphate, 1 μM KH2PO4, 9.9 mM KCl), 10 μM (low phosphate 10 μM KH2PO4, 9.9 mM KCl) or 1.25 mM KH2PO4 (high phosphate). Arabidopsis seeds were stratified for 2 days at 4° C. before germination. Seedlings were germinated in climate-controlled growth chambers at 22° C. under continuous light (100 μmol m^−2 s^−1). Husked rice seeds were germinated on wetted Whatman paper for 2 days at 37° C. and then transferred to Sterivent boxes or square Petri dishes with solid medium. Maize and soybean seeds were wetted 24 hours at room temperature prior to sowing in pots.
For the chemical activity assessment 3 to 8 seeds per well of Arabidopsis pSPX1::GUS line were sown in 96-well plates containing 150 μl of low phosphate modMS liquid medium containing 1% of sucrose. Compounds were added in 50 μM concentration, starting from a 5 mM stock of compounds solved in DMSO. Different chemical substances were separately added to different wells. Per plate, 16 control wells were used, 8 containing only the low phosphate medium and 1% DMSO, and 8 containing high phosphate medium and 1% DMSO. 7 days after germination, plates were scanned using a flatbed scanner (EPSON Expression 11000XL) and analyzed for leaf size. After scanning, the growth medium was replaced by GUS staining solution (see Plant Mol. Biol. Rep. 1994, 12: 37-42 for details) and incubated for 1.5 hours at 37° C. The plates were scanned a second time and analyzed for GUS signal area. Measurements of both leaf area and GUS signal area were conducted by filtering out and measure the green and blue signal, respectively using ImageJ software. If the green leaf area was 50% or less than the control, samples were omitted. Additionally, all results were visually screened for leaf size and GUS signal.

Arabidopsis root hairs = experiment: Root hair number and length quantification; format: in vivo, Arabidopsis thaliana; settings: Arabidopsis thaliana, read-out: Total root hair length per root (in % compared to the control)
Description: as §1
Roots were imaged using a stereomicroscope or a VHX-6000. Number and length of the root hairs parallel to the medium surface was determined at 4 to 6 mm above the root meristem. Root hair length was measured using the ImageJ software.

Maize = Maize growth experiment in pots with mixture of unfertilized potting soil and sand (leaf 5); format: in vivo
Description: For a subset of compounds, we performed a more extensive analysis on their root hair inducing effect in a dose-response experiment (Table 3). This confirms that the more simple structures 8.14 and 8.14.6 still retain the activity of compound 8. […] To validate this, we performed a maize growth experiment using compound 8 and the, based on the increase of total root hair length, stronger variant 8.14.6. The experiment was conducted in pots with a mixture of unfertilized potting soil and sand, and leaf 5 was measured after 29 days (Table 4).

SMILES	GUS (SPX1) stained area normalized to the number of seeds [1] [pixels]	activity at 0.6 µM (Arabidopsis root hairs) [%]	activity at 1.25 µM (Arabidopsis root hairs) [%]	other results
CN(Cc1ccc(Br)s1)C(=O)CN1C(=O)CCOc2ccccc21 [Compound 8.14.2]	39			
COc1ccc([N+](=O)[O-])cc1NCC(=O)N1CCCC1c1cccs1 (centres unmarked) [Compound 8.14.5]	93			
Cc1ccc2c(c1)OC(C)CN2CC(N)=O (centres unmarked) [Compound 8.14]	2	231	343	activity at 2.5 µM (Arabidopsis root hairs; 2.5 μM): 493%; activity at 5 µM (Arabidopsis root hairs; 5 μM): 803%
O=C(CN1CC(C(=O)N2CCCCC2)Oc2ccccc21)N1CC=C(c2ccccc2)CC1 (centres unmarked) [Compound 8.14.1]	22			
COc1ccc(C)cc1NCC(N)=O [Compound 8.14.6]	2	231	592	Growth-promoting effect on maize versus compound 8 (Maize; leaf 5 after 29 days): even a stronger growth-promoting effect; Leaf 5 (Maize; maize, pots with unfertilized potting soil and sand, after 29 days, control 38.1): 41.8 cm
CC(C)(C)c1csc(NC(=O)CN2C(=O)COc3ccccc32)n1 [Compound 8.14.4]	46			

— patent publication US20240206469A1, “PHOSPHORUS USE EFFICIENCY ENHANCERS AS PLANT GROWTH PROMOTORS” (EUROCHEM ANTWERPEN, priority 2021, published 2024)
